Source: patent US8841449B2, “Compounds useful as inhibitors of ATR kinase” (Vertex Pharmaceuticals Incorporated, priority 2011, dated 2014)

What was measured:
[1] = Pharmacokinetics (clearance and volume of distribution); type: in vivo; details: for clearance / Vd: in vivo, noncompartmental, intravenous (IV) dosing, species not given; for Vd: read-out: Vss (steady state volume of distribution)
Excerpt: Noncompartmental pharmacokinetic parameters can be analyzed using Watson Bioanalytical LIMS (Version 7.4; Thermo Fisher Scientific) from either the blood or plasma samples. The following parameters can be estimated following intravenous (IV) dosing: terminal elimination half-life (T1/2=ln(2)/λz, where λz is the first order rate constant associated with the terminal (log-linear) portion of the curve); the area under the curve (AUClast=area under the curve from the time of dosing to the last measurable concentration); the area under the curve extrapolated to infinity (AUC0-∞=AUClast+Clast/λz). The clearance (Cl; Cl=DoseIV/AUC0-∞); the area under the first moment curve (AUMClast=area under the concentration times time versus time curve from the time of dosing to the last measurable concentration); the area under the first moment curve extrapolated to infinity (AUMC0-∞=AUMClast+Clast×t/λz+Clast/λz^2); the mean residence time (MRT=AUMC0-∞/AUC0-∞); and the steady state volume of distribution (Vdss=MRT×Cl).
Clearance and volume of distribution can also be obtained using methods known to one of skill in the art (see e.g., Handbook of Essential Pharmacokinetics, Pharmacodynamics and Drug Metabolism for Industrial Scientists, Younggil Kwon, pp 18-28 (Noncompartmental Approach)).

[2] = molecular target: T1, ATR kinase (full-length ATR) (Homo sapiens, UniProt Q13535); test: ATR Inhibition Assay (radioactive-phosphate incorporation); type: biochemical; details: Ki(app); 10 μM ATP, 800 μM target peptide, 5 nM full-length ATR, 25° C.
T1 construct: Assays were carried out at 25° C. in the presence of 5 nM full-length ATR
Description: Compounds were screened for their ability to inhibit ATR kinase using a radioactive-phosphate incorporation assay. Assays were carried out in a mixture of 50 mM Tris/HCl (pH 7.5), 10 mM MgCl2 and 1 mM DTT. Final substrate concentrations were 10 μM [γ-33P]ATP (3mCi 33P ATP/mmol ATP, Perkin Elmer) and 800 μM target peptide (ASELPASQPQPFSAKKK).
Assays were carried out at 25° C. in the presence of 5 nM full-length ATR. An assay stock buffer solution was prepared containing all of the reagents listed above, with the exception of ATP and the test compound of interest. 13.5 μL of the stock solution was placed in a 96 well plate followed by addition of 2 μL of DMSO stock containing serial dilutions of the test compound (typically starting from a final concentration of 15 μM with 3-fold serial dilutions) in duplicate (final DMSO concentration 7%). The plate was pre-incubated for 10 minutes at 25° C. and the reaction initiated by addition of 15 μL [γ-33P]ATP (final concentration 10 μM).
The reaction was stopped after […] by the addition of 30 μL 0.1M phosphoric acid containing 2 mM ATP. A multiscreen phosphocellulose filter 96-well plate (Millipore, Cat no. MAPHN0B50) was pretreated with 100 μL 0.2M phosphoric acid prior to the addition of 45 μL of the stopped assay mixture. The plate was washed with 5×200 μL 0.2M phosphoric acid. After drying, 100 μL Optiphase ‘SuperMix’ liquid scintillation cocktail (Perkin Elmer) was added to the well prior to scintillation counting (1450 Microbeta Liquid Scintillation Counter, Wallac).
After removing mean background values for all of the data points, Ki(app) data were calculated from non-linear regression analysis of the initial rate data using the Prism software package (GraphPad Prism version 3.0cx for Macintosh, GraphPad Software, San Diego Calif., USA).

T1 sequence (Q13535 whole entry): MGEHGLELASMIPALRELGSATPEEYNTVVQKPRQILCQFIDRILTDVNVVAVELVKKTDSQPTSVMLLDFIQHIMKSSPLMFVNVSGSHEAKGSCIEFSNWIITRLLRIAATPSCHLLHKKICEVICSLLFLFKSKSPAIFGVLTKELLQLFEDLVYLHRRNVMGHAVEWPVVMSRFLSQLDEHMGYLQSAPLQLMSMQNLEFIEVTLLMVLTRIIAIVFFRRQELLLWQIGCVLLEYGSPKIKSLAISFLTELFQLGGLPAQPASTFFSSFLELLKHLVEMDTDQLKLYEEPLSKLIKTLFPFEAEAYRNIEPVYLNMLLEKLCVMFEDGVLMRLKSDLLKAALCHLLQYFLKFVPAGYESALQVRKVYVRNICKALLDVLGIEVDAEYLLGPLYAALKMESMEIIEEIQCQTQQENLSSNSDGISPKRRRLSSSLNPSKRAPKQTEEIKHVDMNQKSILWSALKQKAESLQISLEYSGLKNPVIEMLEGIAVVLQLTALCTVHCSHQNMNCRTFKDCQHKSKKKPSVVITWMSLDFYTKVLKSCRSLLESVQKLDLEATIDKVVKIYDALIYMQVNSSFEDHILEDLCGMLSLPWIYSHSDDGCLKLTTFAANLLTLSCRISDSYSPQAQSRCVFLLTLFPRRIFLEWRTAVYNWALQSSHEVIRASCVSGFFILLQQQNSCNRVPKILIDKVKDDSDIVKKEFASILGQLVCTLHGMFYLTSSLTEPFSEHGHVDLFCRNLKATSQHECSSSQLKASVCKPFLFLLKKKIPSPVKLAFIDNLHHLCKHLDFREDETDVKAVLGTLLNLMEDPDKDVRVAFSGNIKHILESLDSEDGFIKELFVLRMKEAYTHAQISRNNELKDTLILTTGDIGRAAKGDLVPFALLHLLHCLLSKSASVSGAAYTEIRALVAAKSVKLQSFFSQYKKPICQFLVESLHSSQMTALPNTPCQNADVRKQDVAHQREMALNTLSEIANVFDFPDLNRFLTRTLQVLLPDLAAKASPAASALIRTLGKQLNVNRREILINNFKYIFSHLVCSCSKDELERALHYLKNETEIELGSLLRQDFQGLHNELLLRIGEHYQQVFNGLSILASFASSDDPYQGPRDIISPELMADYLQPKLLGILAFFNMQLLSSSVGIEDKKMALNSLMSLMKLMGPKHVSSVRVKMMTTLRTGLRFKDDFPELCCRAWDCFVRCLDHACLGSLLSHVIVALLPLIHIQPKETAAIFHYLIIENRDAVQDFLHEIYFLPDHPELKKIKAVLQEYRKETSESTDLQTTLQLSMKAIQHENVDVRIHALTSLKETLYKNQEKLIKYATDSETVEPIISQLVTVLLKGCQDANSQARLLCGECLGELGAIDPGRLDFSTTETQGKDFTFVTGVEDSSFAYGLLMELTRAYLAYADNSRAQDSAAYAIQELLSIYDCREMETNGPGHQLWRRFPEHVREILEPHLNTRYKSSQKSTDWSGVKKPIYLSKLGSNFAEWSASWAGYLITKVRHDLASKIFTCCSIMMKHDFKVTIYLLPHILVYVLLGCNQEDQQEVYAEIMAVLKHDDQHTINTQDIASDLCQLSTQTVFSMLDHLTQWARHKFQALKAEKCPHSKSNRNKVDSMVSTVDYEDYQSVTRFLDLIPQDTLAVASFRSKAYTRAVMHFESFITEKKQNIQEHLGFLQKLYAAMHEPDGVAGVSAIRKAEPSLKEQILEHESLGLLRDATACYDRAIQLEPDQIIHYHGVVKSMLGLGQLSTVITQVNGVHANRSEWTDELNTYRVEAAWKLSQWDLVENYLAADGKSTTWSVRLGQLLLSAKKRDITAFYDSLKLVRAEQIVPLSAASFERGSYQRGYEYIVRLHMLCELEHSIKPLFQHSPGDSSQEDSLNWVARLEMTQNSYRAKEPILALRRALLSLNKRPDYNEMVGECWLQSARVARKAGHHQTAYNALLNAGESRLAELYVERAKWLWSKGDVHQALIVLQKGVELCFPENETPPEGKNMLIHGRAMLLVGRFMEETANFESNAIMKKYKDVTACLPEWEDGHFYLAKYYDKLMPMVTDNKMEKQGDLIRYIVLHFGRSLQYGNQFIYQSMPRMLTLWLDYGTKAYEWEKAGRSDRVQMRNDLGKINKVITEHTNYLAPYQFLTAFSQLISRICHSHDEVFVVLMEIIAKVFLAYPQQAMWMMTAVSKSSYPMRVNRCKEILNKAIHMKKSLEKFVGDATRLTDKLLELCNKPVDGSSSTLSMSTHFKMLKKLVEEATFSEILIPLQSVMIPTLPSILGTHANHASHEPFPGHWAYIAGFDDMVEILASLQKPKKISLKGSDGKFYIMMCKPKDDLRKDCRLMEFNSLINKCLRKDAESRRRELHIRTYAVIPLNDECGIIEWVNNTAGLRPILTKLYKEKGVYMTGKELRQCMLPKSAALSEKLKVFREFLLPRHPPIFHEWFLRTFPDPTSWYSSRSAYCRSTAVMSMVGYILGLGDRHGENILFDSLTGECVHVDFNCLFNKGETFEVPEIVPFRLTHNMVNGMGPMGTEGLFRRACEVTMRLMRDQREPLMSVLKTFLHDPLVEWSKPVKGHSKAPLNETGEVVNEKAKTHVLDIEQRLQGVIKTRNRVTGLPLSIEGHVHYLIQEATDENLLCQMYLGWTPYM

| Structure (SMILES) | Ki [2] [nM] | also measured |
| --- | --- | --- |
| Cc1ccsc1-c1nnc(-c2nc(-c3ccc(S(=O)(=O)C4CCNCC4)cc3)cnc2N)o1 [Compound A, reference compound] |  | clearance [1]: 34.3 mL/min/kg; Vd [1]: 12.5 L/kg |
| Nc1ncc(-c2ccc(S(=O)(=O)C3CCCNC3)cc2)nc1-c1cc(-c2ccccc2)no1 (stereo not shown) [Compound I-1, 3-(3-phenylisoxazol-5-yl)-5-(4-(piperidin-3-ylsulfonyl)phenyl)pyrazin-2-amine] | ≤ 5 | clearance [1]: 0.9 mL/min/kg; Vd [1]: 0.9 L/kg |
| Cc1ccsc1-c1cc(-c2nc(-c3ccc(S(=O)(=O)C4CCCNC4)cc3)cnc2N)on1 (stereo not shown) [Compound I-2, 3-(3-(3-methylthiophen-2-yl)isoxazol-5-yl)-5-(4-(piperidin-3-ylsulfonyl)phenyl)pyrazin-2-amine] | ≤ 5 |  |
| Nc1ncc(-c2ccc(S(=O)(=O)C3CCCNC3)cc2)nc1-c1cc(-c2cccs2)no1 (stereo not shown) [Compound I-3, 5-(4-(piperidin-3-ylsulfonyl)phenyl)-3-(3-(thiophen-2-yl)isoxazol-5-yl)pyrazin-2-amine] | ≤ 5 | clearance [1]: 3.3 mL/min/kg; Vd [1]: 1 L/kg |
| Nc1ncc(-c2ccc(S(=O)(=O)C3CCCNC3)cc2)nc1-c1cc(-c2ccc(O)cc2)no1 (stereo not shown) [Compound I-4, 4-(5-(3-amino-6-(4-(piperidin-3-ylsulfonyl)phenyl)pyrazin-2-yl)isoxazol-3-yl)phenol] | ≤ 5 |  |
| CNCc1ccc(-c2cc(-c3nc(-c4ccc(S(=O)(=O)C5CCCNC5)cc4)cnc3N)on2)cc1 (stereo not shown) [Compound I-5, 3-(3-(4-((methylamino)methyl)phenyl)isoxazol-5-yl)-5-(4-(piperidin-3-ylsulfonyl)phenyl)pyrazin-2-amine] | ≤ 5 |  |
| Nc1ncc(-c2ccc(S(=O)(=O)C3CCCNC3)cc2)nc1-c1cc(-c2ccc(CNC3CCOCC3)cc2)no1 (stereo not shown) [Compound I-6, 5-(4-(piperidin-3-ylsulfonyl)phenyl)-3-(3-(4-(((tetrahydro-2H-pyran-4-yl)amino)methyl)phenyl)isoxazol-5-yl)pyrazin-2-amine] | ≤ 5 |  |
| Nc1ncc(-c2ccc(S(=O)(=O)[C@@H]3CCCNC3)cc2)nc1-c1cc(-c2ccc([C@@H]3COCCN3)cc2)no1 [Compound I-7, 3-(3-(4-((R)-morpholin-3-yl)phenyl)isoxazol-5-yl)-5-(4-((R)-piperidin-3-ylsulfonyl)phenyl)pyrazin-2-amine] | ≤ 5 |  |
| Nc1ncc(-c2ccc(S(=O)(=O)C3CCCNC3)cc2)nc1-c1cc(-c2ccsc2)no1 (stereo not shown) [Compound I-8, 5-(4-(piperidin-3-ylsulfonyl)phenyl)-3-(3-(thiophen-3-yl)isoxazol-5-yl)pyrazin-2-amine] | ≤ 5 |  |
| Nc1ncc(-c2ccc(S(=O)(=O)C3CCCNC3)cc2)nc1-c1cc(-c2nccs2)no1 (stereo not shown) [Compound I-9, 5-(4-(piperidin-3-ylsulfonyl)phenyl)-3-(3-(thiazol-2-yl)isoxazol-5-yl)pyrazin-2-amine] | ≤ 5 |  |
| Cc1ccsc1-c1nnc(-c2nc(-c3ccc(S(=O)(=O)C4CCCNC4)cc3)cnc2N)o1 (stereo not shown) [Compound I-10, 3-(5-(3-methylthiophen-2-yl)-1,3,4-oxadiazol-2-yl)-5-(4-(piperidin-3-ylsulfonyl)phenyl)pyrazin-2-amine] | ≤ 5 | PK properties (clearance and volume of distribution) compared with similar compounds ([1]; compared to a similar 4-piperidine compound (Compound A)): much lower clearance and volume of distribution; clearance [1]: 9.3 mL/min/kg; Vd [1]: 3 L/kg |
| Nc1ncc(-c2ccc(S(=O)(=O)C3CCCNC3)cc2)nc1-c1nnc(-c2sccc2F)o1 (stereo not shown) [Compound I-11, 3-(5-(3-fluorothiophen-2-yl)-1,3,4-oxadiazol-2-yl)-5-(4-(piperidin-3-ylsulfonyl)phenyl)pyrazin-2-amine] | ≤ 5 |  |
| Nc1ncc(-c2ccc(S(=O)(=O)C3CCCNC3)cc2)nc1-c1nnc(-c2cccs2)o1 (stereo not shown) [Compound I-12, 5-(4-(piperidin-3-ylsulfonyl)phenyl)-3-(5-(thiophen-2-yl)-1,3,4-oxadiazol-2-yl)pyrazin-2-amine] | ≤ 5 |  |
| COc1ccsc1-c1nnc(-c2nc(-c3ccc(S(=O)(=O)C4CCCNC4)cc3)cnc2N)o1 (stereo not shown) [Compound I-13, 3-(5-(3-methoxythiophen-2-yl)-1,3,4-oxadiazol-2-yl)-5-(4-(piperidin-3-ylsulfonyl)phenyl)pyrazin-2-amine] | ≤ 5 |  |
| COc1ccccc1-c1nnc(-c2nc(-c3ccc(S(=O)(=O)C4CCCNC4)cc3)cnc2N)o1 (stereo not shown) [Compound I-14, 3-(5-(2-methoxyphenyl)-1,3,4-oxadiazol-2-yl)-5-(4-(piperidin-3-ylsulfonyl)phenyl)pyrazin-2-amine] | ≤ 5 | clearance [1]: 16 mL/min/kg; Vd [1]: 2 L/kg |
| Cc1ccsc1-c1nnc(-c2nc(-c3ccc(S(=O)(=O)[C@H]4CCCNC4)cc3)cnc2N)o1 [Compound I-15, (S)-3-(5-(3-methylthiophen-2-yl)-1,3,4-oxadiazol-2-yl)-5-(4-(piperidin-3-ylsulfonyl)phenyl)pyrazin-2-amine] | ≤ 5 |  |
| Cc1ccsc1-c1nnc(-c2nc(-c3ccc(S(=O)(=O)[C@@H]4CCCNC4)cc3)cnc2N)o1 [Compound I-16, (R)-3-(5-(3-methylthiophen-2-yl)-1,3,4-oxadiazol-2-yl)-5-(4-(piperidin-3-ylsulfonyl)phenyl)pyrazin-2-amine] | ≤ 5 |  |
| Nc1ncc(-c2ccc(S(=O)(=O)C3CCCNC3)cc2)nc1-c1nnc(-c2ccc(C3COCCN3)cc2)o1 (stereo not shown) [Compound I-17, 3-(5-(4-(morpholin-3-yl)phenyl)-1,3,4-oxadiazol-2-yl)-5-(4-(piperidin-3-ylsulfonyl)phenyl)pyrazin-2-amine] | ≤ 5 |  |
| Nc1ncc(-c2ccc(S(=O)(=O)C3CCCNC3)cc2)nc1-c1nnc(-c2ccccc2)s1 (stereo not shown) [Compound I-18, 3-(5-phenyl-1,3,4-thiadiazol-2-yl)-5-(4-(piperidin-3-ylsulfonyl)phenyl)pyrazin-2-amine] | ≤ 5 |  |
| Nc1ncc(-c2ccc(S(=O)(=O)C3CCCNC3)cc2)nc1-c1nnc(-c2ccccc2)o1 (stereo not shown) [Compound I-19] | ≤ 5 |  |
| Nc1ncc(-c2ccc(S(=O)(=O)C3CCCNC3)cc2)nc1-c1cc(-c2ccc(OCCO)cc2)no1 (stereo not shown) [Compound I-20] | 5 to 10 |  |
| Nc1ncc(-c2ccc(S(=O)(=O)C3CCCNC3)cc2)nc1-c1cc(-c2ccc(CO)cc2)no1 (stereo not shown) [Compound I-21] | 5 to 10 |  |
| Nc1ncc(-c2ccc(S(=O)(=O)C3CCCNC3)cc2)nc1-c1cc(-c2ccccc2F)no1 (stereo not shown) [Compound I-22] | 10 to 25 |  |
| COc1ccccc1-c1cc(-c2nc(-c3ccc(S(=O)(=O)C4CCCNC4)cc3)cnc2N)on1 (stereo not shown) [Compound I-23] | 5 to 10 |  |
| Cc1ccccc1-c1cc(-c2nc(-c3ccc(S(=O)(=O)C4CCCNC4)cc3)cnc2N)on1 (stereo not shown) [Compound I-24] | 10 to 25 |  |
| Nc1ncc(-c2ccc(S(=O)(=O)C3CCCNC3)cc2)nc1-c1cc(-c2ccccc2Cl)no1 (stereo not shown) [Compound I-25] | 10 to 25 |  |
| Nc1ncc(-c2ccc(S(=O)(=O)C3CCCNC3)cc2)nc1-c1cc(-c2ccccc2O)no1 (stereo not shown) [Compound I-26] | ≤ 5 |  |
